Experimental findings from paper PMC10414583, “Structures of SARS-CoV-2 N7-methyltransferase with DOT1L and PRMT7 inhibitors provide a platform for new antivirals” (PLOS Pathogens, 2023) are described below.

The structures appear in SMILES notation.

The Kd is the free concentration of one partner at which half of the binding sites on the other are occupied at equilibrium, for simple one-to-one binding. Read a low Kd as tighter binding.

The assay has as its target T1, SARS-CoV-2 nsp14/nsp10 complex (Severe acute respiratory syndrome coronavirus 2, UniProt P0DTD1).
T1 construct: gene rep; full-length mature nsp14 and nsp10 cut from replicase polyprotein 1ab; co-expressed from one pRSF-Duet-1 plasmid in E. coli BL21Gold (DE3), C-terminal 6xHis; with Non-structural protein 10
The assay can be described thus: biochemical. The assay is classed as binding.
`Nc1ncnc2c1ncn2[C@@H]1O[C@H](CSCCCCNCc2cccc(-c3ccc(Cl)cc3)c2)[C@@H](O)[C@H]1O` [SGC8158] gave a Kd of around 6 µM.
For `CC(C)N(CCCNC(=O)Nc1ccc(C(C)(C)C)cc1)C[C@H]1O[C@@H](n2cc(Br)c3c(N)ncnc32)[C@H](O)[C@@H]1O` [SGC0946] the value was around 8 µM; for `Nc1nc2c(ncn2[C@@H]2O[C@H](COP(=O)(O)OP(=O)(O)OP(=O)(O)OC[C@H]3O[C@@H](n4cnc5c(N)ncnc54)[C@H](O)[C@@H]3O)[C@@H](O)[C@H]2O)c(=O)[nH]1` [GpppA RNA cap analog], 20 µM.
For `C[S+](CC[C@H](N)C(=O)O)C[C@H]1O[C@@H](n2cnc3c(N)ncnc32)[C@H](O)[C@@H]1O` (stereo partly shown) [SAM] the value was around 6 µM.
